pIC50: −log10 of the molar value.
Columns and labels:
[1] = target: purified recombinant human topoisomerase II (Homo sapiens, UniProt P11388); test: Topoisomerase II inhibition assay (cleavage and relaxation); assay type: biochemical; conditions: test compound at 1 mM, 100 μM, or 10 μM; plasmid DNA, agarose gel
Description: Topoisomerase II assay—Plasmid DNA (0.3 μg) was incubated at 37° C. with 4 units of purified recombinant human topoisomerase II in cleavage buffer (30 mM Tris.HCl, pH 7.6, 60 mM NaCl, 3 mM ATP, 15 mM mercaptoethanol, 8 mM MgCl2) with or without the addition of test compound (at 1 mM, 100 μM, or 10 μM final concentration). Reactions were stopped by the immediate addition of SDS (1% w/v final). Samples were treated with proteinase K (30 min at 37° C.) and extracted twice with an equal volume of […] CHCl3/i-amyl alcohol. […] Topoisomerase II inhibition was judged by the production of linear plasmid DNA, representing trapped cleavage intermediate, and by the ratio of substrate (spercoiled DNA) to product (relaxed DNA). A relaxation assay was performed identically, except that the reaction buffer was optimised for the detection of catalysis rather than cleavage, i.e. only 2 units of enzyme were used per sample. The reaction buffer was 50 mM Tris.HCl, pH 8, 120 mM KCl, 0.5 mM ATP, 0.5 mM dithiothreitol, 10 mM MgCl2. Topoisomerase II inhibition was judged by the ratio of substrate (supercoiled DNA) to product (relaxed DNA).

[2] = Carcinoma cell line panel, SRB-assay
Description: (§1) After incubation for 96 h, cytotoxicity was assessed using a standard SRB-assay.

[3] = Serum stability of drug-ester linkages; assay type: in vitro ADME; conditions: bovine; 10% FCS in DMEM, 1 to 40 μM, 37° C.; appearance of free drug; read-out: Serum t1/2 of Drug-Linker Ester bond
Description: Hydrolysis of the ester bonds between the drug hydroxy groups and the linker carboxyl groups was assessed by appearance of free podophyllotoxin or paclitaxel.

[4] = tested on: HL60 cells; test: Intracellular stability; assay type: in vitro ADME; conditions: 15 μM for 1 h, washed, 1 additional h neat medium
Description: After the incubation, cells were washed extensively with PBS until no test compound was detectable in the washes. Cells were incubated for one additional h with neat medium. Afterwards the cells were pelleted, resuspended in 50 mM Tris pH 7.5, containing a cocktail of protease inhibitors and they were solubilised by ultrasonication for 1 min. The insoluble fraction was pelleted for 15 min using an Eppendorf centrifuge and the supernatant was analysed by anal. RP-HPLC (0-60% MeCN gradient, λ=254 nm).

[5] = tested on: A2780; test: Carcinoma cell line panel, SRB-assay; conditions: Homo sapiens, A2780, 96 h, read-out: 96-h IC50 cytotoxicity
Description: as §1

[6] = tested on: SKOV-3; test: Carcinoma cell line panel, SRB-assay; conditions: Homo sapiens, SK-OV-3, 96 h, read-out: 96-h IC50 cytotoxicity
Description: as §1

[7] = tested on: COLO205; test: Carcinoma cell line panel, SRB-assay; conditions: Homo sapiens, COLO 205, 96 h, read-out: 96-h IC50 cytotoxicity
Description: as §1

[8] = tested on: CH1Dox^R; test: Carcinoma cell line panel, SRB-assay; conditions: 96 h, read-out: 96-h IC50 cytotoxicity
Description: as §1

[9] = tested on: HT29; test: Carcinoma cell line panel, SRB-assay; conditions: Homo sapiens, HT-29, 96 h, read-out: 96-h IC50 cytotoxicity
Description: as §1

[10] = tested on: LIM1215; test: Carcinoma cell line panel, SRB-assay; conditions: LIM1215, 96 h, read-out: 96-h IC50 cytotoxicity
Description: as §1

[11] = tested on: BE; test: Carcinoma cell line panel, SRB-assay; conditions: 96 h, read-out: 96-h IC50 cytotoxicity
Description: as §1

[12] = tested on: CH1; test: Carcinoma cell line panel, SRB-assay; conditions: Homo sapiens, CH1, 96 h, read-out: 96-h IC50 cytotoxicity
Description: as §1

[13] = tested on: DLD-1; test: Carcinoma cell line panel, SRB-assay; conditions: Homo sapiens, DLD-1, 96 h, read-out: 96-h IC50 cytotoxicity
Description: as §1

[14] = tested on: HCT116; test: Carcinoma cell line panel, SRB-assay; conditions: Homo sapiens, HCT-116, 96 h, read-out: 96-h IC50 cytotoxicity
Description: as §1

[15] = tested on: LS174T; test: Carcinoma cell line panel, SRB-assay; conditions: Homo sapiens, 96 h, read-out: 96-h IC50 cytotoxicity
Description: as §1

[16] = tested on: KM12; test: Carcinoma cell line panel, SRB-assay; conditions: Homo sapiens, KM12, 96 h, read-out: 96-h IC50 cytotoxicity
Description: as §1

[17] = tested on: A2780Cis^R; test: Carcinoma cell line panel, SRB-assay; conditions: Homo sapiens, A2780cisR, 96 h, read-out: 96-h IC50 cytotoxicity
Description: as §1

[18] = tested on: CH1Taxol^R; test: Carcinoma cell line panel, SRB-assay; conditions: 96 h, read-out: 96-h IC50 cytotoxicity
Description: as §1

[19] = tested on: A549 lung carcinoma; test: Cytotoxic activity, MTT-assay; assay type: cell-based; conditions: Homo sapiens
Description: (§2) Assay procedure—Cells were seeded into 96-well plates at 2,500 cells per well in DMED, containing 10% FCS and antibiotics. After overnight incubation, test compounds were prepared as dilution series in cell medium (addition of dimethylsulfoxide in the case of free paclitaxel to effect partial dissolution) and were added to the cells. For the 1-h exposure samples, incubation was continued for 1 h, cell culture medium supernatants were removed and the wells were further washed with cell culture medium (5×2 min). Total viable cells were quantitated after a total of 72 h incubation using a standard MTT-assay.

[20] = tested on: MCF7 breast carcinoma; test: Cytotoxic activity, MTT-assay; assay type: cell-based; conditions: Homo sapiens
Description: as §2

Chain of purified recombinant human topoisomerase II (P11388 whole entry): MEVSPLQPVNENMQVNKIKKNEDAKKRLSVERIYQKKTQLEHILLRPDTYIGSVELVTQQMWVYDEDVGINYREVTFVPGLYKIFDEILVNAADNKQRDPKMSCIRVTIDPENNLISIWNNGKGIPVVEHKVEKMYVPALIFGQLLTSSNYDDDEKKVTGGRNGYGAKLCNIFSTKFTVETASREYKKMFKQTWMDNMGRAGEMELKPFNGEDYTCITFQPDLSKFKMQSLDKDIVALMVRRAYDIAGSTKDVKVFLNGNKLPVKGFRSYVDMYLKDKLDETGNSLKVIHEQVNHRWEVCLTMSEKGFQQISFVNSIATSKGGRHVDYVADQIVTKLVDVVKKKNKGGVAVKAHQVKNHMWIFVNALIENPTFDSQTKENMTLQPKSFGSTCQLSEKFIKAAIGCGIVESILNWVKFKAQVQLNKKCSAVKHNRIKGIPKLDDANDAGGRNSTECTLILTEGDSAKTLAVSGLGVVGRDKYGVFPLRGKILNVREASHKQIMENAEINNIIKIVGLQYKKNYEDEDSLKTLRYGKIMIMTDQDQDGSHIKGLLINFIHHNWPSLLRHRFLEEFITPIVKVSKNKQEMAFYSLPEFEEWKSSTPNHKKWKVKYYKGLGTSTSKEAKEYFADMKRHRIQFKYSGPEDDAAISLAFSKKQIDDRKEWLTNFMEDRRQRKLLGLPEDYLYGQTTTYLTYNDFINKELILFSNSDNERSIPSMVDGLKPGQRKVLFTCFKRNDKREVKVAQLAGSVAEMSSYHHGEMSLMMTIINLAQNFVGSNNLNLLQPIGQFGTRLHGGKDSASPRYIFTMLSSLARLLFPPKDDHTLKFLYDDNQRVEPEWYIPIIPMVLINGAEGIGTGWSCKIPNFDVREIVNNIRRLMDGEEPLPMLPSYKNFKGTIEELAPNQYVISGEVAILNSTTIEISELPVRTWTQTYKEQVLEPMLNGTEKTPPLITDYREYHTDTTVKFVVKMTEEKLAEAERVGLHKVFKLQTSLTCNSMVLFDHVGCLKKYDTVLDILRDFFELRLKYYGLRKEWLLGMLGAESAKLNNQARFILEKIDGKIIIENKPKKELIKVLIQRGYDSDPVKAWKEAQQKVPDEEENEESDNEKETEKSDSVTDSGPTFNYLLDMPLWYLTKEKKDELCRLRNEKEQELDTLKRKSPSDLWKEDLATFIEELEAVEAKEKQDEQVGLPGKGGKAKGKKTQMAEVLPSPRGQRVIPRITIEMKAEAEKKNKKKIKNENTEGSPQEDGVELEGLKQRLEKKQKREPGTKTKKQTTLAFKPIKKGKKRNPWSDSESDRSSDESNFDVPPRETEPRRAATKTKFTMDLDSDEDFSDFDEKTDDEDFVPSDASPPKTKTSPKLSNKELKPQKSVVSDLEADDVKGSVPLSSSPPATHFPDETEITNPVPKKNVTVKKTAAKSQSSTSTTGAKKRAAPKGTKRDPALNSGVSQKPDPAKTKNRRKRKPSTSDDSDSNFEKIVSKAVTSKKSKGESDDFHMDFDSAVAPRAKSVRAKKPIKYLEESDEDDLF

| Compound | Activity observed [1] | pIC50 [5] | pIC50 [6] | pIC50 [7] | pIC50 [8] | pIC50 [9] | pIC50 [10] | pIC50 [11] | pIC50 [12] | pIC50 [13] | pIC50 [14] | pIC50 [15] | pIC50 [16] | pIC50 [17] | pIC50 [18] | other results |
| --- | --- | --- | --- | --- | --- | --- | --- | --- | --- | --- | --- | --- | --- | --- | --- | --- |
| 4′-Demethyl-4-[4″-aminoanilino-(succinimidopropionoyl)-(H-Cys-βAla-Arg-Arg-Met-Lys-Trp-Lys-Lys-NH2)]epipodophyllotoxin | I | – | – | – | – | – | – | – | – | – | – | – | – | – | – | – |
| COc1cc([C@@H]2c3cc4c(cc3[C@@H](Nc3ccc(N)cc3)[C@H]3COC(=O)[C@H]23)OCO4)cc(OC)c1O [4′-Demethyl-4-(4″-aminoanilino)epipodophyllotoxin] | I | – | – | – | – | – | – | – | – | – | – | – | – | – | – | – |
| CC[C@H](C)[C@H](NC(=O)[C@H](CCCCN)NC(=O)[C@@H](NC(=O)[C@H](CCC(N)=O)NC(=O)[C@H](CCCNC(=N)N)NC(=O)[C@@H](N)CSC1CC(=O)N(CCC(=O)O[C@H]2C[C@H]3OC[C@@]3(OC(C)=O)[C@H]3[C@H](OC(=O)c4ccccc4)[C@]4(O)C[C@H](OC(=O)[C@H](O)[C@@H](NC(=O)c5ccccc5)c5ccccc5)C(C)=C([C@@H](OC(C)=O)C(=O)[C@]23C)C4(C)C)C1=O)[C@@H](C)CC)C(=O)N[C@@H](Cc1c[nH]c2ccccc12)C(=O)N[C@@H](Cc1ccccc1)C(=O)N[C@@H](CCC(N)=O)C(=O)N[C@@H](CC(N)=O)C(=O)N[C@@H](CCCNC(=N)N)C(=O)N[C@@H](CCCNC(=N)N)C(=O)N[C@@H](CCSC)C(=O)N[C@@H](CCCCN)C(=O)N[C@@H](Cc1c[nH]c2ccccc12)C(=O)N[C@@H](CCCCN)C(=O)N[C@@H](CCCCN)C(=O)O (some centres unmarked) [7-Paclitaxel Vector Conjugate] | – | – | – | – | – | – | – | – | – | – | – | – | – | – | – | IC50 at 96 h [2]: > 25000 nM |
| CCC(C)[C@H](NC(=O)[C@H](CCCCN)NC(=O)[C@@H](NC(=O)[C@H](CCC(N)=O)NC(=O)[C@H](CCCNC(=N)N)NC(=O)[C@@H](N)CSC1CC(=O)N(CCC(=O)O[C@H]2c3cc4c(cc3[C@@H](c3cc(OC)c(OC)c(OC)c3)[C@H]3C(=O)OC[C@@H]32)OCO4)C1=O)C(C)CC)C(=O)N[C@@H](Cc1c[nH]c2ccccc12)C(=O)N[C@@H](Cc1ccccc1)C(=O)N[C@@H](CCC(N)=O)C(=O)N[C@@H](CC(N)=O)C(=O)N[C@@H](CCCNC(=N)N)C(=O)N[C@@H](CCCNC(=N)N)C(=O)N[C@@H](CCSC)C(=O)N[C@@H](CCCCN)C(=O)N[C@@H](Cc1c[nH]c2ccccc12)C(=O)N[C@@H](CCCCN)C(=O)N[C@@H](CCCCN)C(N)=O (some centres unmarked) [A] | – | – | – | – | – | – | – | – | – | – | – | – | – | – | – | half-life [3]: > 24 h; Intact test compound in supernatant of solubilised cells ([4]; RP-HPLC and MALDI-TOF MS): Intact test compound was identified; Test compound in DMSO extracts of pellets ([4]; insoluble fraction): no test compound was detected |
| COc1cc([C@@H]2c3cc4c(cc3[C@@H](O[C@@H]3O[C@@H]5CO[C@@H](C)O[C@H]5[C@H](O)[C@H]3O)[C@H]3COC(=O)[C@H]23)OCO4)cc(OC)c1O [Etoposide] | – | 6.68 | 4.89 | 6.10 | 5.18 | 5.59 | 6.48 | 5.96 | 6.78 | 6.24 | 5.72 | 6.34 | 6.24 | 6.17 | 6.84 | – |
| CC(=O)O[C@H]1C(=O)[C@@]2(C)[C@H]([C@H](OC(=O)c3ccccc3)[C@]3(O)C[C@H](OC(=O)[C@H](O)[C@@H](NC(=O)c4ccccc4)c4ccccc4)C(C)=C1C3(C)C)[C@]1(OC(C)=O)CO[C@@H]1C[C@@H]2O [Paclitaxel] | – | > 8.60 | 8.00 | 8.59 | 6.27 | > 8.60 | 8.24 | > 8.60 | 8.38 | 7.27 | > 8.60 | 8.07 | 8.55 | 8.29 | 8.24 | pIC50 ([19]; 72 h, A549, Exposure time 3 d): > 7.82; pIC50 ([19]; A549, Exposure time 1 h, then washed, viable cells after total 72 h): 7.55; pIC50 ([20]; 72 h, MCF7, Exposure time 3 d): > 7.82; pIC50 ([20]; MCF7, Exposure time 1 h, then washed, viable cells after total 72 h): 7.40 |
